We go through 8 cell lines from the supplement of paper PMC10307832.

Common to all, as to assay: relative viability (nuclei count vs DMSO), 5 days (fraction); higher = more cells survive
Compound in assay [1]: CC1(C)CNc2cc(NC(=O)c3cccnc3NCc3ccncc3)ccc21 [Motesanib] + O=C(CCCCCCC(=O)Nc1ccccc1)NO [Vorinostat] (partner 1 µM)
An outline of the steps: (§1)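 The day after seeding in 1536-well plates, lung cancer cell lines were treated by pin tool with a single drug, or with a fixed anchor-drug dose together with five library-drug doses (not always all listed) in √10 steps. After 5 days, a combined fix-and-stain solution (final 0.05% Triton X-100, 1% formaldehyde, 1 ug/ml Hoechst) was added. Nuclei counted on 4× images gave relative viability as treated counts over vehicle counts, reported as the median of duplicate plates.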

Compound in assay [2]: C[C@@]1(C(=O)Nc2ccc(F)nc2)CCCN1c1nc(Nc2cc(C3CC3)n[nH]2)c2cccn2n1 + Cc1nc(Nc2ncc(C(=O)Nc3c(C)cccc3Cl)s2)cc(N2CCN(CCO)CC2)n1 [Dasatinib] (partner 0.075 µM)
Put shortly: as §1

Compound in assay [3]: C[C@@]1(C(=O)Nc2ccc(F)nc2)CCCN1c1nc(Nc2cc(C3CC3)n[nH]2)c2cccn2n1 + Nc1ncn([C@H]2C[C@H](O)[C@@H](CO)O2)c(=O)n1 [Decitabine] (partner 2 µM)
Put shortly: as §1

Compound in assay [4]: C[C@@]1(C(=O)Nc2ccc(F)nc2)CCCN1c1nc(Nc2cc(C3CC3)n[nH]2)c2cccn2n1 + O=C(CCCCCCC(=O)Nc1ccccc1)NO [Vorinostat] (partner 1 µM)
Put shortly:
as §1

As to HOP-62, the relative viability in assay [1] (first compound 0.01 µM) worked out at 0.668; in assay [1] (first compound 0.03162 µM), 0.677; in assay [1] (first compound 0.1 µM), 0.599; in assay [1] (first compound 0.3162 µM), 0.972; in assay [1] (first compound 1 µM), 0.799; in assay [2] (first compound 0.04 µM) it was 0.662. For the same cell line, the relative viability in assay [2] (first compound 0.1265 µM) turned out to be 0.565; in assay [2] (first compound 0.4 µM), 0.469; in assay [2] (first compound 1.265 µM), 0.374; in assay [3] (first compound 0.04 µM) it was 0.181; in assay [3] (first compound 0.1265 µM), 0.203; in assay [3] (first compound 0.4 µM) it was 0.224. For the same cell line, the relative viability turned out to be 0.173 in assay [3] (first compound 1.265 µM); 0.589 in assay [4] (first compound 0.04 µM); 0.529 in assay [4] (first compound 0.1265 µM); 0.464 in assay [4] (first compound 0.4 µM); 0.527 in assay [4] (first compound 1.265 µM).

LOU-NH91: the relative viability in assay [1] (first compound 0.01 µM) was 0.918; in assay [1] (first compound 0.03162 µM), 0.932; in assay [1] (first compound 0.1 µM), 0.993; in assay [1] (first compound 0.3162 µM), 1; in assay [1] (first compound 1 µM), 0.992; in assay [2] (first compound 0.04 µM) it was 0.461. Further, the relative viability in assay [2] (first compound 0.1265 µM) was 0.449; in assay [2] (first compound 0.4 µM) it was 0.395; in assay [2] (first compound 1.265 µM), 0.286; in assay [3] (first compound 0.04 µM), 0.774; in assay [3] (first compound 0.1265 µM), 0.874; in assay [3] (first compound 0.4 µM) it was 0.744. Also, the relative viability was determined as 0.771 in assay [3] (first compound 1.265 µM); 0.961 in assay [4] (first compound 0.04 µM); 0.856 in assay [4] (first compound 0.1265 µM); 0.747 in assay [4] (first compound 0.4 µM); 0.711 in assay [4] (first compound 1.265 µM).

As for ChaGo-K-1, the relative viability turned out to be 0.745 in assay [1] (first compound 0.01 µM); 0.764 in assay [1] (first compound 0.03162 µM); 0.745 in assay [1] (first compound 0.1 µM); 0.818 in assay [1] (first compound 0.3162 µM); 0.748 in assay [1] (first compound 1 µM); 0.505 in assay [2] (first compound 0.04 µM). Also, the relative viability amounted to 0.486 in assay [2] (first compound 0.1265 µM); 0.522 in assay [2] (first compound 0.4 µM); 0.443 in assay [2] (first compound 1.265 µM); 0.511 in assay [3] (first compound 0.04 µM); 0.52 in assay [3] (first compound 0.1265 µM); 0.499 in assay [3] (first compound 0.4 µM). Further, the relative viability in assay [3] (first compound 1.265 µM) was found to be 0.503; in assay [4] (first compound 0.04 µM), 0.713; in assay [4] (first compound 0.1265 µM), 0.636; in assay [4] (first compound 0.4 µM), 0.626; in assay [4] (first compound 1.265 µM), 0.671.

In the case of PC-14, the relative viability in assay [1] (first compound 0.01 µM) worked out at 0.702; in assay [1] (first compound 0.03162 µM), 0.867; in assay [1] (first compound 0.1 µM) it was 0.778; in assay [1] (first compound 0.3162 µM), 0.806; in assay [1] (first compound 1 µM), 0.771; in assay [2] (first compound 0.04 µM) it was 0.281. The relative viability was determined as 0.0303 in assay [2] (first compound 0.1265 µM); 0.0906 in assay [2] (first compound 0.4 µM); 0.0823 in assay [2] (first compound 1.265 µM); 0.209 in assay [3] (first compound 0.04 µM); 0.27 in assay [3] (first compound 0.1265 µM); 0.177 in assay [3] (first compound 0.4 µM). The relative viability in assay [3] (first compound 1.265 µM) was 0.172; in assay [4] (first compound 0.04 µM), 0.792; in assay [4] (first compound 0.1265 µM), 0.102; in assay [4] (first compound 0.4 µM) it was 0.45; in assay [4] (first compound 1.265 µM), 0.204.

Regarding NCI-H1437, the relative viability came out at 0.927 in assay [1] (first compound 0.01 µM); 0.73 in assay [1] (first compound 0.03162 µM); 0.759 in assay [1] (first compound 0.1 µM); 0.799 in assay [1] (first compound 0.3162 µM); 0.852 in assay [1] (first compound 1 µM); 0.218 in assay [2] (first compound 0.04 µM). The relative viability in assay [2] (first compound 0.1265 µM) worked out at 0.236; in assay [2] (first compound 0.4 µM) it was 0.223; in assay [2] (first compound 1.265 µM) it was 0.125; in assay [3] (first compound 0.04 µM) it was 0.553; in assay [3] (first compound 0.1265 µM), 0.517; in assay [3] (first compound 0.4 µM) it was 0.521. Also, the relative viability in assay [3] (first compound 1.265 µM) stood at 0.432; in assay [4] (first compound 0.04 µM), 0.898; in assay [4] (first compound 0.1265 µM) it was 0.744; in assay [4] (first compound 0.4 µM) it was 0.527; in assay [4] (first compound 1.265 µM), 0.433.

Turning to NCI-H460, the relative viability in assay [1] (first compound 0.01 µM) came out at 0.635; in assay [1] (first compound 0.03162 µM) it was 0.696; in assay [1] (first compound 0.1 µM), 0.716; in assay [1] (first compound 0.3162 µM), 0.726; in assay [1] (first compound 1 µM), 0.666; in assay [2] (first compound 0.04 µM) it was 0.258. Moreover, the relative viability in assay [2] (first compound 0.1265 µM) stood at 0.101; in assay [2] (first compound 0.4 µM) it was 0.0641; in assay [2] (first compound 1.265 µM), 0.0353; in assay [3] (first compound 0.04 µM) it was 0.506; in assay [3] (first compound 0.1265 µM), 0.446; in assay [3] (first compound 0.4 µM), 0.413. Further, the relative viability in assay [3] (first compound 1.265 µM) came to 0.346; in assay [4] (first compound 0.04 µM) it was 0.829; in assay [4] (first compound 0.1265 µM) it was 0.431; in assay [4] (first compound 0.4 µM), 0.555; in assay [4] (first compound 1.265 µM) it was 0.302.

Take NCI-H1666: the relative viability is 0.926 in assay [1] (first compound 0.01 µM); 0.978 in assay [1] (first compound 0.03162 µM); 1.06 in assay [1] (first compound 0.1 µM); 1 in assay [1] (first compound 0.3162 µM); 1.02 in assay [1] (first compound 1 µM); 0.709 in assay [2] (first compound 0.04 µM). The relative viability in assay [2] (first compound 0.1265 µM) is 0.613; in assay [2] (first compound 0.4 µM), 0.486; in assay [2] (first compound 1.265 µM) it was 0.412; in assay [3] (first compound 0.04 µM) it was 0.66; in assay [3] (first compound 0.1265 µM) it was 0.644; in assay [3] (first compound 0.4 µM), 0.587. Further, the relative viability was found to be 0.492 in assay [3] (first compound 1.265 µM); 0.965 in assay [4] (first compound 0.04 µM); 0.729 in assay [4] (first compound 0.1265 µM); 0.77 in assay [4] (first compound 0.4 µM); 0.82 in assay [4] (first compound 1.265 µM).

Consider SW 900, for which the relative viability was 0.542 in assay [1] (first compound 0.01 µM); 0.404 in assay [1] (first compound 0.03162 µM); 0.574 in assay [1] (first compound 0.1 µM); 0.649 in assay [1] (first compound 0.3162 µM); 0.59 in assay [1] (first compound 1 µM); 0.555 in assay [2] (first compound 0.04 µM). For the same cell line, the relative viability worked out at 0.32 in assay [2] (first compound 0.1265 µM); 0.507 in assay [2] (first compound 0.4 µM); 0.346 in assay [2] (first compound 1.265 µM); 0.403 in assay [3] (first compound 0.04 µM); 0.437 in assay [3] (first compound 0.1265 µM); 0.351 in assay [3] (first compound 0.4 µM). Moreover, the relative viability stood at 0.349 in assay [3] (first compound 1.265 µM); 0.557 in assay [4] (first compound 0.04 µM); 0.426 in assay [4] (first compound 0.1265 µM); 0.432 in assay [4] (first compound 0.4 µM); 0.468 in assay [4] (first compound 1.265 µM).
